Tested on: MV-4-11 cells
Assay: Gene expression microarray analysis (Affymetrix PrimeView) and GSEA
Type: cell-based, human
Parameters: RFU PODN (11730768_x_at) / Fold change /veh PODN (11730768_x_at) / RFU LINC00158 (11744669_a_at) / Fold change /veh LINC00158 (11744669_a_at) / RFU DUSP10 (11751237_a_at) / Fold change /veh DUSP10 (11751237_a_at) / RFU ID3 (11757404_x_at) / Fold change /veh ID3 (11757404_x_at) / RFU PLEKHG5 (11737974_s_at) / Fold change /veh PLEKHG5 (11737974_s_at) / RFU LRRC4B (11730491_at) / Fold change /veh LRRC4B (11730491_at) / RFU GIMAP4 (11747438_a_at) / Fold change /veh GIMAP4 (11747438_a_at) / RFU KRT8 (11758183_x_at) / Fold change /veh KRT8 (11758183_x_at) / RFU CNN1 (11734310_a_at) / Fold change /veh CNN1 (11734310_a_at) / RFU VPS37D (11726825_at) / Fold change /veh VPS37D (11726825_at) / RFU C10orf10 (11716522_x_at) / Fold change /veh C10orf10 (11716522_x_at) / RFU KIR2DL2 /// KIR2DL4 /// KIR2DL5A /// KIR2DL5B /// KIR2DS1 /// KIR2DS2 /// KIR2DS3 /// KIR2DS4 /// KIR3DL3 /// KIR3DL3 /// KIR3DS1 (11738374_at) / Fold change /veh KIR2DL2 /// KIR2DL4 /// KIR2DL5A /// KIR2DL5B /// KIR2DS1 /// KIR2DS2 /// KIR2DS3 /// KIR2DS4 /// KIR3DL3 /// KIR3DL3 /// KIR3DS1 (11738374_at) / RFU C1QL1 (11718748_at) / Fold change /veh C1QL1 (11718748_at) / RFU TMPRSS4 (11747572_a_at) / Fold change /veh TMPRSS4 (11747572_a_at) / RFU HAMP (11756126_x_at) / Fold change /veh HAMP (11756126_x_at) / RFU RNFT2 (11725882_a_at) / Fold change /veh RNFT2 (11725882_a_at) / RFU NR4A2 (11747474_a_at) / Fold change /veh NR4A2 (11747474_a_at) / RFU ABCC12 (11746883_a_at) / Fold change /veh ABCC12 (11746883_a_at) / RFU TMEM136 (11760407_x_at) / Fold change /veh TMEM136 (11760407_x_at) / RFU CLDN22 /// WWC2 (11732394_at) / Fold change /veh CLDN22 /// WWC2 (11732394_at) / RFU HLA-DPB1 (11760878_x_at) / Fold change /veh HLA-DPB1 (11760878_x_at) / RFU SPINT1 (11716480_a_at) / Fold change /veh SPINT1 (11716480_a_at) / RFU GAP43 (11754022_s_at) / Fold change /veh GAP43 (11754022_s_at) / RFU A4GNT (11735810_at) / Fold change /veh A4GNT (11735810_at) / RFU PRB3 (11715151_x_at) / Fold change /veh PRB3 (11715151_x_at) / RFU TUBB4B (11761932_at) / Fold change /veh TUBB4B (11761932_at) / RFU CAPN14 (11732068_a_at) / Fold change /veh CAPN14 (11732068_a_at) / RFU TMCC2 (11721928_a_at) / Fold change /veh TMCC2 (11721928_a_at) / RFU IRGQ (11745062_a_at) / Fold change /veh IRGQ (11745062_a_at) / RFU FAM174B (11720279_a_at) / Fold change /veh FAM174B (11720279_a_at) / RFU TMPRSS4 (11748680_a_at) / Fold change /veh TMPRSS4 (11748680_a_at) / RFU FAM212B (11763350_a_at) / Fold change /veh FAM212B (11763350_a_at) / RFU PLEKHG5 (11743358_a_at) / Fold change /veh PLEKHG5 (11743358_a_at) / RFU ZSCAN30 (11745921_a_at) / Fold change /veh ZSCAN30 (11745921_a_at) / RFU CMKLR1 (11741424_a_at) / Fold change /veh CMKLR1 (11741424_a_at) / RFU LOC101060620 /// MAPK8IP1 (11723275_at) / Fold change /veh LOC101060620 /// MAPK8IP1 (11723275_at) / RFU SPTSSB (11747773_x_at) / Fold change /veh SPTSSB (11747773_x_at) / RFU PRSS12 (11739890_at) / Fold change /veh PRSS12 (11739890_at) / RFU BIN1 (11741810_x_at) / Fold change /veh BIN1 (11741810_x_at) / RFU WNT11 (11732464_a_at) / Fold change /veh WNT11 (11732464_a_at) / RFU C10orf10 (11716521_a_at) / Fold change /veh C10orf10 (11716521_a_at) / RFU C5orf56 (11738089_at) / Fold change /veh C5orf56 (11738089_at) / RFU CYB561 (11721691_x_at) / Fold change /veh CYB561 (11721691_x_at) / RFU ANKRD19P (11752326_a_at) / Fold change /veh ANKRD19P (11752326_a_at) / RFU OR2T12 /// OR2T33 /// OR2T8 (11738714_s_at) / Fold change /veh OR2T12 /// OR2T33 /// OR2T8 (11738714_s_at) / RFU VCAN (11748164_a_at) / Fold change /veh VCAN (11748164_a_at) / RFU JSRP1 (11732532_at) / Fold change /veh JSRP1 (11732532_at) / RFU KRTAP10-11 (11738290_x_at) / Fold change /veh KRTAP10-11 (11738290_x_at) / RFU MYO3A (11730013_a_at) / Fold change /veh MYO3A (11730013_a_at) / RFU EBF3 (11725865_a_at) / Fold change /veh EBF3 (11725865_a_at) / RFU CAMK2N1 (11719241_x_at) / Fold change /veh CAMK2N1 (11719241_x_at) / RFU C5orf56 (11738088_a_at) / Fold change /veh C5orf56 (11738088_a_at) / RFU OLFML3 (11715873_a_at) / Fold change /veh OLFML3 (11715873_a_at) / RFU LOC100653217 /// NTM (11731650_a_at) / Fold change /veh LOC100653217 /// NTM (11731650_a_at) / RFU MAPK11 (11762145_a_at) / Fold change /veh MAPK11 (11762145_a_at) / RFU FIZ1 (11724087_x_at) / Fold change /veh FIZ1 (11724087_x_at) / RFU OASL (11726364_x_at) / Fold change /veh OASL (11726364_x_at) / RFU SOX15 (11748057_x_at) / Fold change /veh SOX15 (11748057_x_at) / RFU CD79A (11719716_a_at) / Fold change /veh CD79A (11719716_a_at) / RFU HIST1H1D (11736915_at) / Fold change /veh HIST1H1D (11736915_at) / RFU CASKIN2 (11723855_a_at) / Fold change /veh CASKIN2 (11723855_a_at) / RFU LOC730098 (11760151_x_at) / Fold change /veh LOC730098 (11760151_x_at) / RFU OR4N2 (11742367_at) / Fold change /veh OR4N2 (11742367_at) / RFU PRRT2 (11749266_a_at) / Fold change /veh PRRT2 (11749266_a_at) / RFU SNX32 (11753110_a_at) / Fold change /veh SNX32 (11753110_a_at) / RFU CDHR5 (11726645_a_at) / Fold change /veh CDHR5 (11726645_a_at) / RFU RCAN1 (11760418_a_at) / Fold change /veh RCAN1 (11760418_a_at) / RFU FAM167A (11723789_a_at) / Fold change /veh FAM167A (11723789_a_at) / RFU FAM26E (11764081_at) / Fold change /veh FAM26E (11764081_at) / RFU ISYNA1 (11749810_s_at) / Fold change /veh ISYNA1 (11749810_s_at) / RFU ACY1 (11761880_at) / Fold change /veh ACY1 (11761880_at) / RFU 11764098_at / Fold change /veh 11764098_at / RFU SAMD14 (11745864_x_at) / Fold change /veh SAMD14 (11745864_x_at) / RFU NPB (11741838_a_at) / Fold change /veh NPB (11741838_a_at) / RFU TMPRSS6 (11731388_a_at) / Fold change /veh TMPRSS6 (11731388_a_at) / RFU KRTAP10-2 (11738614_at) / Fold change /veh KRTAP10-2 (11738614_at) / RFU ARHGAP8 /// PRR5-ARHGAP8 (11727945_x_at) / Fold change /veh ARHGAP8 /// PRR5-ARHGAP8 (11727945_x_at) / RFU KRTAP5-7 /// NADSYN1 (11734609_at) / Fold change /veh KRTAP5-7 /// NADSYN1 (11734609_at) / RFU RASL12 (11751679_a_at) / Fold change /veh RASL12 (11751679_a_at) / RFU CDKN2B (11736163_a_at) / Fold change /veh CDKN2B (11736163_a_at) / RFU PRF1 (11729649_at) / Fold change /veh PRF1 (11729649_at) / RFU, ZNF638 /// ZNF638-IT1 / Fold change vs veh, ZNF638 /// ZNF638-IT1 / RFU, PANK3 / Fold change vs veh, PANK3 / RFU, SH3YL1 / Fold change vs veh, SH3YL1 / RFU, ZEB2 / Fold change vs veh, ZEB2 / RFU, NRIP1 / Fold change vs veh, NRIP1 / RFU, PTTG1IP / Fold change vs veh, PTTG1IP / RFU, CAPN2 / Fold change vs veh, CAPN2 / RFU, MED14 / Fold change vs veh, MED14 / RFU, SNORA58 / Fold change vs veh, SNORA58 / RFU, C1orf63 / Fold change vs veh, C1orf63 / RFU, LRRFIP1 / Fold change vs veh, LRRFIP1 / RFU, NDUFAF7 / Fold change vs veh, NDUFAF7 / RFU, SLC12A2 / Fold change vs veh, SLC12A2 / RFU, IBTK / Fold change vs veh, IBTK / RFU, ESF1 / Fold change vs veh, ESF1 / Fold change vs veh, TMEM50B / RFU, TAOK1 / Fold change vs veh, TAOK1 / RFU, ACBD3 / Fold change vs veh, ACBD3 / RFU, TMA16 / Fold change vs veh, TMA16 / RFU, RWDD3 / Fold change vs veh, RWDD3 / RFU, BCAT1 / Fold change vs veh, BCAT1 / RFU, EDEM3 / Fold change vs veh, EDEM3 / RFU, TMEM33 / Fold change vs veh, TMEM33 / RFU, WDR75 / Fold change vs veh, WDR75 / RFU, AHCTF1 / Fold change vs veh, AHCTF1 / RFU, TFRC / Fold change vs veh, TFRC / RFU, ZDHHC17 / Fold change vs veh, ZDHHC17 / RFU, NOM1 / Fold change vs veh, NOM1 / RFU, ARL8B / Fold change vs veh, ARL8B / RFU, ZBTB11 / Fold change vs veh, ZBTB11 / RFU, TAMM41 / Fold change vs veh, TAMM41 / RFU, KIAA1704 /// LOC100996395 / Fold change vs veh, KIAA1704 /// LOC100996395 / RFU, ING1 / Fold change vs veh, ING1 / RFU, TRMT61B / Fold change vs veh, TRMT61B / RFU, FUBP3 / Fold change vs veh, FUBP3 / RFU, TP53 / Fold change vs veh, TP53 / RFU, TNKS2 / Fold change vs veh, TNKS2 / RFU, ZFP14 / Fold change vs veh, ZFP14 / RFU, ACTR2 / Fold change vs veh, ACTR2 / RFU, PPP3R1 / Fold change vs veh, PPP3R1 / RFU, PIK3R1 / Fold change vs veh, PIK3R1 / RFU, HNRNPA1 / Fold change vs veh, HNRNPA1 / RFU, RNF170 / Fold change vs veh, RNF170 / RFU, ZNF28 / Fold change vs veh, ZNF28 / RFU, RNGTT / Fold change vs veh, RNGTT / RFU, OGT / Fold change vs veh, OGT / RFU, BRD1 / Fold change vs veh, BRD1 / RFU, MARS / Fold change vs veh, MARS / RFU, ZNF655 / Fold change vs veh, ZNF655 / RFU, FAHD1 / Fold change vs veh, FAHD1 / RFU, BDP1 / Fold change vs veh, BDP1 / RFU, LRRCC1 / Fold change vs veh, LRRCC1 / RFU, ARID1A / Fold change vs veh, ARID1A / RFU, ZNF146 / Fold change vs veh, ZNF146 / RFU, ZNF330 / Fold change vs veh, ZNF330 / RFU, GPN3 / Fold change vs veh, GPN3 / RFU, C9orf123 / Fold change vs veh, C9orf123 / RFU, N4BP2L2 / Fold change vs veh, N4BP2L2 / RFU, ARFIP1 / Fold change vs veh, ARFIP1 / RFU, FAM179B / Fold change vs veh, FAM179B / RFU, BCL10 / Fold change vs veh, BCL10 / RFU, UHRF1BP1L / Fold change vs veh, UHRF1BP1L / RFU, BET1 / Fold change vs veh, BET1 / RFU, CNOT2 / Fold change vs veh, CNOT2 / RFU, ZNF268 / Fold change vs veh, ZNF268 / Fold change vs veh, ZNF507 / RFU, DGCR2 / Fold change vs veh, DGCR2 / RFU, WDSUB1 / Fold change vs veh, WDSUB1 / Fold change vs veh, HSP90B1 /// MIR3652 / RFU, ADSS / Fold change vs veh, ADSS / RFU, GK / Fold change vs veh, GK / RFU, ZNF148 / Fold change vs veh, ZNF148 / RFU, TAF9 / Fold change vs veh, TAF9 / RFU, SLC1A5 / Fold change vs veh, SLC1A5 / RFU, SLMO2 / Fold change vs veh, SLMO2 / RFU, ABCC4 / Fold change vs veh, ABCC4 / RFU, LOC101060439 /// RAP1B / Fold change vs veh, LOC101060439 /// RAP1B / RFU, RFX7 / Fold change vs veh, RFX7 / RFU, GTPBP10 / Fold change vs veh, GTPBP10 / RFU, CNEP1R1 / Fold change vs veh, CNEP1R1 / RFU, BIVM-ERCC5 /// ERCC5 / Fold change vs veh, BIVM-ERCC5 /// ERCC5 / RFU, ILF3 / Fold change vs veh, ILF3 / RFU 11762660_at / Fold change /veh 11762660_at / RFU VCAN (11757783_s_at) / Fold change /veh VCAN (11757783_s_at) / RFU DDX43 (11728927_at) / Fold change /veh DDX43 (11728927_at) / RFU KRT8 (11758188_x_at) / Fold change /veh KRT8 (11758188_x_at) / RFU NKD1 (11759106_at) / Fold change /veh NKD1 (11759106_at) / RFU SRD5A1 (11742802_a_at) / Fold change /veh SRD5A1 (11742802_a_at) / RFU TPSAB1 /// TPSB2 (11721975_s_at) / Fold change /veh TPSAB1 /// TPSB2 (11721975_s_at) / RFU GSTM3 (11746129_a_at) / Fold change /veh GSTM3 (11746129_a_at) / RFU IL23R (11737362_x_at) / Fold change /veh IL23R (11737362_x_at) / RFU TMEM51 (11727254_a_at) / Fold change /veh TMEM51 (11727254_a_at) / RFU PIWIL2 (11732686_x_at) / Fold change /veh PIWIL2 (11732686_x_at) / RFU ORM1 (11744905_x_at) / Fold change /veh ORM1 (11744905_x_at) / RFU CCDC152 (11743942_at) / Fold change /veh CCDC152 (11743942_at) / RFU ECM1 (11717891_a_at) / Fold change /veh ECM1 (11717891_a_at) / RFU IL23R (11748794_a_at) / Fold change /veh IL23R (11748794_a_at) / RFU TNFAIP8L3 (11732012_x_at) / Fold change /veh TNFAIP8L3 (11732012_x_at) / RFU MBOAT4 (11741988_at) / Fold change /veh MBOAT4 (11741988_at) / RFU 11764193_at / Fold change /veh 11764193_at / RFU TMEM53 (11763286_at) / Fold change /veh TMEM53 (11763286_at) / RFU MAGEB2 (11727129_at) / Fold change /veh MAGEB2 (11727129_at) / RFU TMEM200A (11744735_a_at) / Fold change /veh TMEM200A (11744735_a_at) / RFU CCDC152 (11751479_a_at) / Fold change /veh CCDC152 (11751479_a_at) / RFU FAM211A (11726209_a_at) / Fold change /veh FAM211A (11726209_a_at) / RFU RGS16 (11746705_a_at) / Fold change /veh RGS16 (11746705_a_at) / RFU VCAN (11755009_s_at) / Fold change /veh VCAN (11755009_s_at) / RFU RHOB (11743442_s_at) / Fold change /veh RHOB (11743442_s_at) / RFU RGS16 (11720943_a_at) / Fold change /veh RGS16 (11720943_a_at) / RFU RGS16 (11720944_at) / Fold change /veh RGS16 (11720944_at) / RFU, VPS4B / Fold change vs veh, VPS4B / RFU, CREB1 / Fold change vs veh, CREB1 / RFU, DNAJC13 / Fold change vs veh, DNAJC13 / RFU, GNAQ / Fold change vs veh, GNAQ / RFU, CDK5R1 / Fold change vs veh, CDK5R1 / RFU, ZRANB3 / Fold change vs veh, ZRANB3 / RFU, CUL4A / Fold change vs veh, CUL4A / RFU, CCNY / Fold change vs veh, CCNY / RFU, UFL1 / Fold change vs veh, UFL1 / RFU, COG3 / Fold change vs veh, COG3 / RFU, DIAPH2 / Fold change vs veh, DIAPH2 / RFU, SKA2 / Fold change vs veh, SKA2 / RFU, AFF3 / Fold change vs veh, AFF3 / RFU, LMF1 / Fold change vs veh, LMF1 / RFU, IPO11 / Fold change vs veh, IPO11 / RFU, DFFB / Fold change vs veh, DFFB / RFU, FOXP1 / Fold change vs veh, FOXP1 / RFU, CARD8 / Fold change vs veh, CARD8 / RFU, STRN3 / Fold change vs veh, STRN3 / RFU, ADK / Fold change vs veh, ADK / RFU, RASSF2 / Fold change vs veh, RASSF2 / RFU, WIPF1 / Fold change vs veh, WIPF1 / RFU, LARP1B / Fold change vs veh, LARP1B / RFU, RASA1 / Fold change vs veh, RASA1 / RFU, RB1 / Fold change vs veh, RB1 / RFU, PPFIA1 / Fold change vs veh, PPFIA1 / RFU, MAT2A / Fold change vs veh, MAT2A / RFU, CCT5 / Fold change vs veh, CCT5 / RFU, WDR92 / Fold change vs veh, WDR92 / RFU, CUX1 / Fold change vs veh, CUX1 / RFU, TTC7A / Fold change vs veh, TTC7A / RFU, TMEM135 / Fold change vs veh, TMEM135 / RFU, DEPTOR / Fold change vs veh, DEPTOR / RFU, CPM / Fold change vs veh, CPM / RFU, DNAJB6 / Fold change vs veh, DNAJB6 / RFU, CACNA2D3 / Fold change vs veh, CACNA2D3 / RFU, DTX4 / Fold change vs veh, DTX4 / RFU, TFCP2 / Fold change vs veh, TFCP2 / RFU, GMCL1 /// GMCL1P1 / Fold change vs veh, GMCL1 /// GMCL1P1 / RFU, AEBP2 / Fold change vs veh, AEBP2 / RFU, SNHG1 /// SNORD22 /// SNORD25 /// SNORD26 /// SNORD27 /// SNORD28 /// SNORD29 /// SNORD31 / Fold change vs veh, SNHG1 /// SNORD22 /// SNORD25 /// SNORD26 /// SNORD27 /// SNORD28 /// SNORD29 /// SNORD31 / Fold change (Aza/veh), C12orf56 (ProbeSet 11735607_a_at) / Fold change (ACY-1035/veh), C12orf56 (ProbeSet 11735607_a_at) / Fold change (Aza/veh), FGFR1OP (ProbeSet 11751329_s_at) / Fold change (ACY-1035/veh), FGFR1OP (ProbeSet 11751329_s_at) / Fold change (Aza/veh), VPS36 (ProbeSet 11739960_a_at) / Fold change (ACY-1035/veh), VPS36 (ProbeSet 11739960_a_at) / RFU SYPL1 (11715823_x_at) / Fold change /veh SYPL1 (11715823_x_at) / RFU IGFBP7 (11715501_s_at) / Fold change /veh IGFBP7 (11715501_s_at) / RFU REEP3 (11722064_at) / Fold change /veh REEP3 (11722064_at) / RFU IGLL1 (11728026_x_at) / Fold change /veh IGLL1 (11728026_x_at): dose or concentration left out as unconfirmed
Conditions: ProbeSet 11744854_x_at; LIST B

Nc1ccc(-c2cccs2)cc1NC(=O)c1ccc2c(c1)cc(C1CC1)n2CCN1CCOCC1 [ACY-1035]
Fold change vs veh, ZNF28: 0.85
